pIC50: −log10 of the molar value.
What was measured:
human TLR9 = target: T1, human TLR9 (Homo sapiens, UniProt Q9NR96); assay: TLR9 inhibition reporter assay (HEK-Blue cells, SEAP reporter, ODN2006 stimulation); assay type: cell-based; conditions: HEK-Blue cells overexpressing human TLR9, ODN2006 5 nM
T1 construct: host or cells: HEK-Blue cells
T1 sequence (Q9NR96 26-1032): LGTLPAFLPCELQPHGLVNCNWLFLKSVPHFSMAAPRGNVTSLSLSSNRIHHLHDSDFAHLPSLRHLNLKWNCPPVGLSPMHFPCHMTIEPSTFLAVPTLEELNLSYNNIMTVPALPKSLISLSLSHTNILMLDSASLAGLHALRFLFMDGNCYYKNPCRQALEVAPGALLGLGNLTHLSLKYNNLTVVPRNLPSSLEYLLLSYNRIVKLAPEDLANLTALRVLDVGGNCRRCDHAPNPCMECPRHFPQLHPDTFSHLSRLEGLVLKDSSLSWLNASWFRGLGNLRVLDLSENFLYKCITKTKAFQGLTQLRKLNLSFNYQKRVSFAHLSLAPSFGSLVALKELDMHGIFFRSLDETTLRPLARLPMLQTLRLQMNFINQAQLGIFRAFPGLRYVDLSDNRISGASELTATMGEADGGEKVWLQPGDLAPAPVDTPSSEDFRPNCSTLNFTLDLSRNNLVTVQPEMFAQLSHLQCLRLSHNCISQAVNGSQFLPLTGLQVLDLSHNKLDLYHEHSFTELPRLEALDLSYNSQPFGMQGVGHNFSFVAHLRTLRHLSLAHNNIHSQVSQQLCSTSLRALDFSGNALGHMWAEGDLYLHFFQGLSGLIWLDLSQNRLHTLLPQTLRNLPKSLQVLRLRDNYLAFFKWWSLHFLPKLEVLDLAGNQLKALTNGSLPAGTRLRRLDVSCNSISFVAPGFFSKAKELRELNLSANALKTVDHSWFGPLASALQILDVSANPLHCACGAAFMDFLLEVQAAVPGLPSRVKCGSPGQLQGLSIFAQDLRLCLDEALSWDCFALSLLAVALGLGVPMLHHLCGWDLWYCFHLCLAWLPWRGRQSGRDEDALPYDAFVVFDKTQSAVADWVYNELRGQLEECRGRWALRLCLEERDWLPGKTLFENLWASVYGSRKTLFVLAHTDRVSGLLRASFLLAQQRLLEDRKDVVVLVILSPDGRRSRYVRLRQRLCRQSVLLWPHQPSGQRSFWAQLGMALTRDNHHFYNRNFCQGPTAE
Summary of the method: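 Dose–response from 0.05 nM to 50 μM was run in HEK-Blue human TLR7, TLR8 and TLR9 reporter cells. After 30 min at room temperature with compound, ligand was added (TLR7 gardiquimod 7.5 μM; TLR8 R848 15.9 μM; TLR9 ODN2006 5 nM) and SEAP measured next day, at 22 h.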

human TLR7 = target: T2, human TLR7 (Homo sapiens, UniProt Q9NYK1); assay: TLR7 inhibition reporter assay (HEK-Blue cells, SEAP reporter, gardiquimod stimulation); assay type: cell-based; conditions: HEK-Blue cells overexpressing human TLR7, gardiquimod 7.5 μM
T2 construct: host or cells: HEK-Blue cells
T2 sequence (Q9NYK1 27-1049): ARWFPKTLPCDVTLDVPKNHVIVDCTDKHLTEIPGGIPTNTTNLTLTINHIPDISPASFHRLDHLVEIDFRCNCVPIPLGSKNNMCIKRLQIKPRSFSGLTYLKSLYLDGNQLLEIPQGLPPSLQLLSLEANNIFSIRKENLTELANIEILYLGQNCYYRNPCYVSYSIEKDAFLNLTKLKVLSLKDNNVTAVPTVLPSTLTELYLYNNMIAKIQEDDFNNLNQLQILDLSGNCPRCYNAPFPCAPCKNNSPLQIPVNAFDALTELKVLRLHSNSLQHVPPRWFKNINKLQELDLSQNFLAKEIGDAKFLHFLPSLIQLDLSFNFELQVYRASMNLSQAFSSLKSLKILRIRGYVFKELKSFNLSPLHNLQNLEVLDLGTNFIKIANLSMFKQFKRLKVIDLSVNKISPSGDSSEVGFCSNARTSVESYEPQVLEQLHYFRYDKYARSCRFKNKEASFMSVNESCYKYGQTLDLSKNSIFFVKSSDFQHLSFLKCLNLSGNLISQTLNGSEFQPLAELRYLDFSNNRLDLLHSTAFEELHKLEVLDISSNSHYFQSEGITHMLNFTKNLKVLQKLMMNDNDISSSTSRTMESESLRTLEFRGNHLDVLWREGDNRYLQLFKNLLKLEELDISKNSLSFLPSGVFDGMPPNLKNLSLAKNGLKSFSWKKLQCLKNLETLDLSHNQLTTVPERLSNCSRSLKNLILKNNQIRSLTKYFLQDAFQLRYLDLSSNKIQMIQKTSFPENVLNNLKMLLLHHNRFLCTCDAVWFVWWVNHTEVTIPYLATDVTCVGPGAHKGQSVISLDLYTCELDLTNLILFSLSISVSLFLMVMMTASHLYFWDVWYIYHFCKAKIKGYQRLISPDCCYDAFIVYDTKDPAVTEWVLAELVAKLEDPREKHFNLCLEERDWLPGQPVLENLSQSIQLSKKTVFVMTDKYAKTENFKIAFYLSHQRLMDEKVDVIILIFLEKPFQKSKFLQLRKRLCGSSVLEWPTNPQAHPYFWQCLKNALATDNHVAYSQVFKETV
Summary of the method: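 In this cell reporter format, test compounds at 0.05 nM-50 μM final incubate 22 h with seeded cells (TLR7 15000, TLR8 20,000 per well). SEAP read-out by HEK-Blue Detection medium yields % inhibition relative to agonist/DMSO and known-inhibitor wells.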

| Structure (SMILES) | pIC50 (human TLR9) | pIC50 (human TLR7) |
| --- | --- | --- |
| COc1ccc(-c2[nH]c3ccc(C4CCN(C(=O)CN5CCC(N6CCN(C)CC6)CC5)CC4)cc3c2C(C)C)cc1OC [Example 241, 1-(4-(2-(3,4-dimethoxyphenyl)-3-isopropyl-1H-indol-5-yl)piperidin-1-yl)-2-(4-(4-methylpiperazin-1-yl)piperidin-1-yl)ethan-1-one] | 6.24 | 7.92 |
| COc1ccc(-c2[nH]c3ccc(C4CCN(C(=O)CN5CCC(O)CC5)CC4)cc3c2C(C)C)cc1OC [Example 238, 1-(4-(2-(3,4-dimethoxyphenyl)-3-isopropyl-1H-indol-5-yl)piperidin-1-yl)-2-(4-hydroxypiperidin-1-yl) ethan-1-one] | 5.85 | 7.44 |
| COc1ccc(-c2[nH]c3ccc(C4CCN(C(=O)CNC5CCCC5O)CC4)cc3c2C(C)C)cc1OC (stereo not shown) [Example 236, 1-(4-(2-(3,4-dimethoxyphenyl)-3-isopropyl-1H-indol-5-yl)piperidin-1-yl)-2-((2-hydroxycyclopentyl)amino)ethan-1-one] | 5.86 | 7.54 |
| COc1ccc(-c2[nH]c3ccc(C4CCN(C(=O)CN5CCC[C@H](C(=O)N6CC7CNCC7C6)C5)CC4)cc3c2C(C)C)cc1OC (stereo partly shown) [Example 299, 1-(4-(2-(3,4-dimethoxyphenyl)-3-isopropyl-1H-indol-5-yl)piperidin-1-yl)-2-((3 S)-3-(octahydropyrrolo[3,4-c]pyrrole-2-carbonyl)piperidin-1-yl)ethan-1-one] | 5.16 | 6.69 |
| COc1ccc(-c2[nH]c3ccc(C4CCN(CC(=O)N[C@H]5CC[C@H](C(C)(C)O)CC5)CC4)cc3c2C(C)C)cc1OC [Example 279, 2-(4-(2-(3,4-dimethoxyphenyl)-3-isopropyl-1H-indol-5-yl)piperidin-1-yl)-N-((1r,4r)-4-(2-hydroxypropan-2-yl)cyclohexyl)acetamide] | 4.75 | 6.31 |
| COc1ccc(-c2[nH]c3ccc(C4CCN(Cc5nccn5C)CC4)cc3c2C(C)C)cc1OC [Example 262, 2-(3,4-dimethoxyphenyl)-3-isopropyl-5-(1-((1-methyl-1H-imidazol-2-yl)methyl)piperidin-4-yl)-1H-indole] | 5.53 | 7.21 |
| COc1ccc(-c2[nH]c3ccc(C4CCN(C(=O)CN5CCCC(CO)C5)CC4)cc3c2C(C)C)cc1OC (stereo not shown) [Example 249, 1-(4-(2-(3,4-dimethoxyphenyl)-3-isopropyl-1H-indol-5-yl)piperidin-1-yl)-2-(3-(hydroxymethyl)piperidin-1-yl)ethan-1-one] | 6.11 | 7.68 |
| COc1ccc(-c2[nH]c3ccc(C4CCNCC4O)cc3c2C(C)C)cc1OC (single isomer, unassigned) [Example 318, 4-(2-(3,4-dimethoxyphenyl)-3-isopropyl-1H-indol-5-yl)piperidin-3-ol 2,2,2-trifluoroacetate] | 4.95 | 5.48 |
| COc1ccc(-c2[nH]c3ccc(C4CCN(C(=O)CN(C)CCO)CC4)cc3c2C(C)C)cc1OC [Example 242, 1-(4-(2-(3,4-dimethoxyphenyl)-3-isopropyl-1H-indol-5-yl)piperidin-1-yl)-2-((2-hydroxyethyl)(methyl)amino)ethan-1-one] | 6.01 | 7.64 |
| COc1ccc(-c2[nH]c3ccc(C4CCN(C(=O)CN5CCCN(C(C)=O)CC5)CC4)cc3c2C(C)C)cc1OC [Example 222, 2-(4-acetyl-1,4-diazepan-1-yl)-1-(4-(2-(3,4-dimethoxyphenyl)-3-isopropyl-1H-indol-5-yl)piperidin-1-yl)ethan-1-one] | 5.16 | 7.35 |
| COc1ccc(-c2[nH]c3ccc(C4CCN(C(=O)CN5CCC[C@@H](C(=O)N(C)C(C)C)C5)CC4)cc3c2C(C)C)cc1OC [Example 304, (R)-1-(2-(4-(2-(3,4-dimethoxyphenyl)-3-isopropyl-1H-indol-5-yl)piperidin-1-yl)-2-oxoethyl)-N-isopropyl-N-methylpiperidine-3-carboxamide] | 5.56 | 7.19 |
| COc1ccc(-c2[nH]c3ccc(C4CCN(C(=O)CN5CCOCC5)CC4)cc3c2C(C)C)cc1OC [Example 223, 1-(4-(2-(3,4-dimethoxyphenyl)-3-isopropyl-1H-indol-5-yl)piperidin-1-yl)-2-morpholinoethan-1-one] | ≤ 4.30 | 7.32 |
| CCN(CC)C(=O)C1CCCN(CC(=O)N2CCC(c3ccc4[nH]c(-c5ccc(OC)c(OC)c5)c(C(C)C)c4c3)CC2)C1 (stereo not shown) [Example 247, 1-(2-(4-(2-(3,4-dimethoxyphenyl)-3-isopropyl-1H-indol-5-yl)piperidin-1-yl)-2-oxoethyl)-N,N-diethylpiperidine-3-carboxamide] | 5.38 | 7.40 |
| COc1ccc(-c2[nH]c3ccc(C4CCN(C(=O)CN5CCC[C@H](C(=O)N6CCN(C(C)=O)CC6)C5)CC4)cc3c2C(C)C)cc1OC [Example 284, (S)-2-(3-(4-acetylpiperazine-1-carbonyl)piperidin-1-yl)-1-(4-(2-(3,4-dimethoxyphenyl)-3-isopropyl-1H-indol-5-yl)piperidin-1-yl)ethan-1-one] | 5.34 | 7.41 |
| COc1ccc(-c2[nH]c3ccc(C4CCN(CC(=O)N(C)C)CC4)cc3c2C(C)C)cc1OC [Example 312, 2-(4-(2-(3,4-dimethoxyphenyl)-3-isopropyl-11H-indol-5-yl)piperidin-1-yl)-N,N-dimethylacetamide] | 5.86 | 8.10 |
| COc1ccc(-c2[nH]c3ccc(C4CCN(C(=O)CN5CCC[C@H](C(=O)NCCNC(C)=O)C5)CC4)cc3c2C(C)C)cc1OC [Example 295, (S)—N-(2-acetamidoethyl)-1-(2-(4-(2-(3,4-dimethoxyphenyl)-3-isopropyl-1H-indol-5-yl)piperidin-1-yl)-2-oxoethyl) piperidine-3-carboxamide] | 5.27 | 7.30 |
| COc1ccc(-c2[nH]c3ccc(C4CCN(C(=O)CN5CCC[C@@H](C(=O)NCC(N)=O)C5)CC4)cc3c2C(C)C)cc1OC [Example 309, (R)—N-(2-amino-2-oxoethyl)-1-(2-(4-(2-(3,4-dimethoxyphenyl)-3-isopropyl-1H-indol-5-yl)piperidin-1-yl)-2-oxoethyl)piperidine-3-carboxamide] | 5.16 | 7.51 |
